Consider 30 compounds from patent US8703768B2, “Nitrogen containing heteroaryl compounds” (Hoffmann-La Roche Inc., priority 2010, dated 2014).

The target of this test is human PDE10A (Homo sapiens (Human), UniProt Q9Y233). Nature of the test: human PDE10A full length Scintillation Proximity Assay (SPA). The format is biochemical. Particulars: 50 nM cGMP and 50 nM [3H]-cGMP, 20 minutes at room temperature; read-out: PDE10A inhibition IC50. The method, boiled down:
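Radiometric SPA read-out: after 20 min at room temperature with [^3H]-cGMP/cGMP substrate, zinc sulphate (18 mM) bead stop reagent added and counts read after 1 h. Non-specific signal defined without enzyme; full-length protein used.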
On the technique in general: SPA uses beads or plates that emit light when radiolabelled molecules are held near them.

Usually IC50 stands for the concentration at which inhibition is half-maximal.

Chain of human PDE10A (Q9Y233 other isoform, or with tags, fused parts or gaps): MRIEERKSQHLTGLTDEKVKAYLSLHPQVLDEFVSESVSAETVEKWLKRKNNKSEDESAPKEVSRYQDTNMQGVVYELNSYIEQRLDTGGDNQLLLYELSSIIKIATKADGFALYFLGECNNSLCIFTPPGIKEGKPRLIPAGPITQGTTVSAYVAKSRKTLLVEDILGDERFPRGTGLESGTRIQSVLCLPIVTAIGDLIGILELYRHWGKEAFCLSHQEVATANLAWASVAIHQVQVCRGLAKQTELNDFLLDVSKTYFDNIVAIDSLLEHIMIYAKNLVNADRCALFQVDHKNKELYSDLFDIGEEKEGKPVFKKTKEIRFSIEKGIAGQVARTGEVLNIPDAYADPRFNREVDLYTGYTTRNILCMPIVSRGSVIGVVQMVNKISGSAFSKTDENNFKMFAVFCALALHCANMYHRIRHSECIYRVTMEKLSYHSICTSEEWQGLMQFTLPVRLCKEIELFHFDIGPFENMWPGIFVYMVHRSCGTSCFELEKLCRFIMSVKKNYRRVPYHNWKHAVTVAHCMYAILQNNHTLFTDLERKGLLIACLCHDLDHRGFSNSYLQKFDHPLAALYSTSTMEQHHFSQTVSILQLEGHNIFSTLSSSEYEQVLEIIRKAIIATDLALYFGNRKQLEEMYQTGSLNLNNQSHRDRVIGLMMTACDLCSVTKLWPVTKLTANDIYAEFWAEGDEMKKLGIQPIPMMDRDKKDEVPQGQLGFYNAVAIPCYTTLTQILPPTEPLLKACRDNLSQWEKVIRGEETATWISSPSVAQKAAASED

`COCCN(C)C(=O)c1ncncc1NC(=O)c1nc(C2CC2)cnc1Nc1cncnc1` [Example 118, 5-{[6-Cyclopropyl-3-(pyrimidin-5-ylamino)-pyrazine-2-carbonyl]-amino}-pyrimidine-4-carboxylic acid (2-methoxy-ethyl)-methyl-amide]: the IC50 was found to be 89.7 nM.

`Cn1ncc(NC(=O)c2nc(C3CC3)cnc2Nc2cncnc2)c1C(=O)NCC(C)(C)O` [Example 119, 6-Cyclopropyl-3-(pyrimidin-5-ylamino)-pyrazine-2-carboxylic acid [5-(2-hydroxy-2-methyl-propylcarbamoyl)-1-methyl-1H-pyrazol-4-yl]-amide]: the IC50 came to 4.5 nM.

Take `CC(C)(O)CNC(=O)c1cnccc1NC(=O)c1nc(C2CC2)cnc1Nc1cncnc1` [Example 120, 6-Cyclopropyl-3-(pyrimidin-5-ylamino)-pyrazine-2-carboxylic acid [3-(2-hydroxy-2-methyl-propylcarbamoyl)-pyridin-4-yl]-amide]: the IC50 was found to be 0.4 nM.

In the case of `CC1(NC(=O)c2ccncc2NC(=O)c2nc(C3CC3)cnc2Nc2cncnc2)COC1` [Example 121, 6-Cyclopropyl-3-(pyrimidin-5-ylamino)-pyrazine-2-carboxylic acid [4-(3-methyl-oxetan-3-ylcarbamoyl)-pyridin-3-yl]-amide], the IC50 was determined as 5.8 nM.

Turning to `CN(CC(C)(C)O)C(=O)c1ncncc1NC(=O)c1nc(C2CC2)cnc1Nc1cncnc1` [Example 122, 5-{[6-Cyclopropyl-3-(pyrimidin-5-ylamino)-pyrazine-2-carbonyl]-amino}-pyrimidine-4-carboxylic acid (2-hydroxy-2-methyl-propyl)-methyl-amide], the IC50 is 45.3 nM.

Take `CN(CC(C)(C)O)C(=O)c1ncccc1NC(=O)c1nc(C2CC2)cnc1Nc1cncnc1` [Example 123, 6-Cyclopropyl-3-(pyrimidin-5-ylamino)-pyrazine-2-carboxylic acid {2-[(2-hydroxy-2-methyl-propyl)-methyl-carbamoyl]-pyridin-3-yl}-amide]: the IC50 is 9.6 nM.

Regarding `CNC(=O)c1ccncc1NC(=O)c1nc(C2CC2)cnc1Nc1cncnc1` [Example 124, 6-Cyclopropyl-3-(pyrimidin-5-ylamino)-pyrazine-2-carboxylic acid (4-methylcarbamoyl-pyridin-3-yl)-amide], the IC50 was 2.1 nM.

For the compound `CC(C)(CO)NC(=O)c1ccncc1NC(=O)c1nc(C2CC2)cnc1Nc1cncnc1` [Example 125, 6-Cyclopropyl-3-(pyrimidin-5-ylamino)-pyrazine-2-carboxylic acid [4-(2-hydroxy-1,1-dimethyl-ethylcarbamoyl)-pyridin-3-yl]-amide], the IC50 was found to be 5.6 nM.

Regarding `CNC(=O)c1nn(C)cc1NC(=O)c1nc(NCCOC)ncc1Nc1cncnc1` [Example 126, 2-(2-Methoxy-ethylamino)-5-(pyrimidin-5-ylamino)-pyrimidine-4-carboxylic acid (1-methyl-3-methylcarbamoyl-1H-pyrazol-4-yl)-amide], the IC50 worked out at 122 nM.

For the compound `CNC(=O)c1nn(C)cc1NC(=O)c1nc(C2CCOC2)ccc1Nc1cncnc1` (stereo not drawn) [Example 127, 3-(Pyrimidin-5-ylamino)-6-(tetrahydro-furan-3-yl)-pyridine-2-carboxylic acid (1-methyl-3-methylcarbamoyl-1H-pyrazol-4-yl)-amide], the IC50 worked out at 8.5 nM.

Consider `CNC(=O)c1ncccc1NC(=O)c1nc(C2CC2)cnc1Nc1cncnc1` [Example 128, 6-Cyclopropyl-3-(pyrimidin-5-ylamino)-pyrazine-2-carboxylic acid (2-methylcarbamoyl-pyridin-3-yl)-amide], for which the IC50 was determined as 1.3 nM.

For the compound `CN(C)C(=O)c1ncccc1NC(=O)c1nc(C2CC2)cnc1Nc1cncnc1` [Example 129, 6-Cyclopropyl-3-(pyrimidin-5-ylamino)-pyrazine-2-carboxylic acid (2-dimethylcarbamoyl-pyridin-3-yl)-amide], the IC50 turned out to be 6 nM.

Take `CNC(=O)c1c(NC(=O)c2nc(C(C)C)cnc2Nc2cncnc2)cnn1C` [Example 131, 6-Isopropyl-3-(pyrimidin-5-ylamino)-pyrazine-2-carboxylic acid (1-methyl-5-methylcarbamoyl-1H-pyrazol-4-yl)-amide]: the IC50 was determined as 1.4 nM.

Turning to `CCn1ncc(NC(=O)c2nc(C3CC3)cnc2Nc2cncnc2)c1C(=O)NCC(C)(C)O` [Example 132, 6-Cyclopropyl-3-(pyrimidin-5-ylamino)-pyrazine-2-carboxylic acid [1-ethyl-5-(2-hydroxy-2-methyl-propylcarbamoyl)-1H-pyrazol-4-yl]-amide], the IC50 was 16.9 nM.

Take `CCn1ncc(NC(=O)c2nc(C3CC3)cnc2Nc2cncnc2)c1C(=O)NC` [Example 133, 6-Cyclopropyl-3-(pyrimidin-5-ylamino)-pyrazine-2-carboxylic acid (1-ethyl-5-methylcarbamoyl-1H-pyrazol-4-yl)-amide]: the IC50 came to 6.7 nM.

As for `CC(C)Cn1ncc(NC(=O)c2nc(C3CC3)cnc2Nc2cncnc2)c1C(=O)NCC(C)(C)O` [Example 134, 6-Cyclopropyl-3-(pyrimidin-5-ylamino)-pyrazine-2-carboxylic acid [5-(2-hydroxy-2-methyl-propylcarbamoyl)-1-isobutyl-1H-pyrazol-4-yl]-amide], the IC50 was found to be 21.5 nM.

Regarding `Cn1ncc(NC(=O)c2nc(C3CC3)cnc2Nc2cncnc2)c1C(=O)NC1(C)COC1` [Example 136, 6-Cyclopropyl-3-(pyrimidin-5-ylamino)-pyrazine-2-carboxylic acid [1-methyl-5-(3-methyl-oxetan-3-ylcarbamoyl)-1H-pyrazol-4-yl]-amide], the IC50 is 3.6 nM.

`CNC(=O)c1c(NC(=O)c2nc(C3CC3)cnc2Nc2cncnc2)cnn1CC(C)C` [Example 137, 6-Cyclopropyl-3-(pyrimidin-5-ylamino)-pyrazine-2-carboxylic acid (1-isobutyl-5-methylcarbamoyl-1H-pyrazol-4-yl)-amide]: the IC50 stood at 58.7 nM.

Consider `CC(C)n1ncc(NC(=O)c2nc(C3CC3)cnc2Nc2cncnc2)c1C(=O)NCC(C)(C)O` [Example 138, 6-Cyclopropyl-3-(pyrimidin-5-ylamino)-pyrazine-2-carboxylic acid [5-(2-hydroxy-2-methyl-propylcarbamoyl)-1-isopropyl-1H-pyrazol-4-yl]-amide], for which the IC50 came to 24.9 nM.

Consider `CNC(=O)c1c(NC(=O)c2nc(C3CC3)cnc2Nc2cncnc2)cnn1C(C)C` [Example 139, 6-Cyclopropyl-3-(pyrimidin-5-ylamino)-pyrazine-2-carboxylic acid (1-isopropyl-5-methylcarbamoyl-1H-pyrazol-4-yl)-amide], for which the IC50 amounted to 11.6 nM.

For `Cn1ncc(NC(=O)c2nc(C3CC3)cnc2Nc2cncnc2)c1C(=O)NCCC(C)(C)O` [Example 140, 6-Cyclopropyl-3-(pyrimidin-5-ylamino)-pyrazine-2-carboxylic acid [5-(3-hydroxy-3-methyl-butylcarbamoyl)-1-methyl-1H-pyrazol-4-yl]-amide], the IC50 stood at 3 nM.

Take `Cn1ncc(NC(=O)c2nc(C3CC3)cnc2Nc2cncnc2)c1C(=O)NCC(C)(C)CO` [Example 142, 6-Cyclopropyl-3-(pyrimidin-5-ylamino)-pyrazine-2-carboxylic acid [5-(3-hydroxy-2,2-dimethyl-propylcarbamoyl)-1-methyl-1H-pyrazol-4-yl]-amide]: the IC50 worked out at 1.1 nM.

Take `Cn1ncc(NC(=O)c2nc(C3CC3)cnc2Nc2cncnc2)c1C(=O)N1CC(F)(F)C1` [Example 143, 6-Cyclopropyl-3-(pyrimidin-5-ylamino)-pyrazine-2-carboxylic acid [5-(3,3-difluoro-azetidine-1-carbonyl)-1-methyl-1H-pyrazol-4-yl]-amide]: the IC50 came out at 23.3 nM.

In the case of `Cn1ncc(NC(=O)c2nc(C3CC3)cnc2Nc2cncnc2)c1C(=O)NCC(F)(F)F` [Example 144, 6-Cyclopropyl-3-(pyrimidin-5-ylamino)-pyrazine-2-carboxylic acid [1-methyl-5-(2,2,2-trifluoro-ethylcarbamoyl)-1H-pyrazol-4-yl]-amide], the IC50 was determined as 2.1 nM.

For the compound `Cn1ncc(NC(=O)c2nc(C3CC3)cnc2Nc2cncnc2)c1C(=O)NCC(F)F` [Example 145, 6-Cyclopropyl-3-(pyrimidin-5-ylamino)-pyrazine-2-carboxylic acid [5-(2,2-difluoro-ethylcarbamoyl)-1-methyl-1H-pyrazol-4-yl]-amide], the IC50 came to 2.9 nM.

Turning to `Cn1ncc(NC(=O)c2nc(C3CC3)cnc2Nc2cncnc2)c1C(=O)NCC(O)C(F)(F)F` (stereo not drawn) [Example 146, 6-Cyclopropyl-3-(pyrimidin-5-ylamino)-pyrazine-2-carboxylic acid [1-methyl-5-(3,3,3-trifluoro-2-hydroxy-propylcarbamoyl)-1H-pyrazol-4-yl]-amide], the half-maximal inhibitory concentration (IC50) worked out at 1.7 nM.

On to `CNC(=O)c1c(NC(=O)c2nc(C3CC3)cnc2Nc2cncnc2)cnn1CCOC` [Example 147, 6-Cyclopropyl-3-(pyrimidin-5-ylamino)-pyrazine-2-carboxylic acid [1-(2-methoxy-ethyl)-5-methylcarbamoyl-1H-pyrazol-4-yl]-amide], for which the 50% inhibitory concentration (IC50) stood at 1.2 nM.

Consider `CNC(=O)c1c(NC(=O)c2nc(C3CC3)ccc2Nc2cncnc2)cnn1C` [Example 148, 6-Cyclopropyl-3-(pyrimidin-5-ylamino)-pyridine-2-carboxylic acid (1-methyl-5-methylcarbamoyl-1H-pyrazol-4-yl)-amide], for which the IC50 amounted to 14.4 nM.

Take `Cn1ncc(NC(=O)c2nc(C3CC3)cnc2Nc2cncnc2)c1C(N)=O` [Example 150, 6-Cyclopropyl-3-(pyrimidin-5-ylamino)-pyrazine-2-carboxylic acid (5-carbamoyl-1-methyl-1H-pyrazol-4-yl)-amide]: the IC50 amounted to 8.5 nM.

As for `COC(C)(C)CNC(=O)c1c(NC(=O)c2nc(C3CC3)cnc2Nc2cncnc2)cnn1C` [Example 151, 6-Cyclopropyl-3-(pyrimidin-5-ylamino)-pyrazine-2-carboxylic acid [5-(2-methoxy-2-methyl-propylcarbamoyl)-1-methyl-1H-pyrazol-4-yl]-amide], the IC50 was found to be 2.7 nM.
